Read-outs that look alike come from different tables or passages of the source.
Experiments:
[1] = molecular target: T1, human HDAC2 (Homo sapiens, UniProt Q92769); test: Primary assay: deacetylase activity, recombinantly produced HDAC2; type: biochemical; details: for IC50: recombinant HDAC2, read-out: HDAC Inhibition (IC50 unless otherwise specified) HDAC2
T1 construct: Full length human HDAC2 was subcloned; Flag (C); His6 (from pAcHLT-A vector; purified on Ni-NTA) (N); made in house; host or cells: SF9 insect cells (baculovirus)
T1 sequence (Q92769 whole entry): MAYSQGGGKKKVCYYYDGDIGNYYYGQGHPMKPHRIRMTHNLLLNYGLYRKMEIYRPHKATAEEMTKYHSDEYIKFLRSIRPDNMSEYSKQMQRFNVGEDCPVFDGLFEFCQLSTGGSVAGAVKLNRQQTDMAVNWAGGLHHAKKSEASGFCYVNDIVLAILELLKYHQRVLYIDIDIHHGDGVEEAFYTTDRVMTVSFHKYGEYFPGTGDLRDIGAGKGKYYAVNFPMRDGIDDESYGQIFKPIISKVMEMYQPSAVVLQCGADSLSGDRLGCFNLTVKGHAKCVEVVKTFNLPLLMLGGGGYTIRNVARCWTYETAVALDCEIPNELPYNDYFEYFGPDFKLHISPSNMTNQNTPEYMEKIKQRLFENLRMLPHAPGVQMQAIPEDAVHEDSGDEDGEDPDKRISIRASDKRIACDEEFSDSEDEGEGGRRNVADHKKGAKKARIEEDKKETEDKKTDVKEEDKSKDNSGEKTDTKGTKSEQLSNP
Excerpt: (§1) Briefly, this assay relies on the release of radioactive acetate from a radioactively labelled histone fragment by the action of HDAC enzyme. Test compounds, which inhibit HDAC, reduce the yield of radioactive acetate. Signal (e.g., scintillation counts) measured in the presence and absence of a test compound provide an indication of that compound's ability to inhibit HDAC activity. Decreased activity indicates increased inhibition by the test compound.
(§2) The histone fragment was an N-terminal sequence from histone H4, and it was labelled with radioactively labelled acetyl groups using tritiated acetylcoenzyme A (coA) in conjunction with an enzyme which is the histone acetyltransferase domain of the transcriptional coactivator p300. […] The acetylated peptide was then separated from free acetyl coA by size exclusion chromatography on Sephadex G-15 (Sigma G-15-120), using distilled H2O as the mobile phase.
(§3) After purification of the radiolabelled histone fragment, it was incubated with a source of HDAC (e.g., an extract of HeLa cells (a rich source of HDAC), recombinantly produced HDAC1 or HDAC2) and any released acetate was extracted into an organic phase and quantitatively determined using scintillation counting. By including a test compound with the source of HDAC, that compound's ability to inhibit the HDAC was determined.
(§4) Amplification of recombinant viruses was performed according to the Pharmingen Instruction Manual.
(§5) For protein production, 2×10^7 cells were infected with the appropriate recombinant virus for 3 days. Cells were then harvested and spun at 3,000 rpm for 5 minutes. They were then washed twice in PBS and resuspended in 2 pellet volumes of lysis buffer (25 mM HEPES pH 7.9, 0.1 mM EDTA, 400 mM KCl, 10% glycerol, 0.1% NP-40, 1 mM AEBSF). Resuspended cells were frozen on dry ice and thawed at 37° C. 3 times and centrifuged for 10 minutes at 14,000 rpm. […] Incubation was carried out at 4° C. for 1 hour on a rotating wheel. The slurry was then centrifuged at 500 g for 5 minutes. Beads were washed twice in 1 ml of wash buffer (25 mM HEPES pH7.9, 0.1 mM EDTA, 150 mM KCl, 10% glycerol, 0.1% NP-40, 1 mM AEBSF). Protein was eluted 3 times in 300 μl elution buffer (25 mM HEPES pH 7.9, 0.1 mM EDTA, 250 mM KCl, 10% glycerol, 0.1% NP-40, 1 mM AEBSF) containing increasing concentrations of imidazole: 0.2 M, 0.5 M and 1 M. Each elution was performed for 5 minutes at room temperature. Eluted protein was kept in 50% glycerol at −70° C.
(§6) A source of HDAC (e.g., 2 μL of crude HeLa extract, 5 μL of HDAC1 or HDAC2; in elution buffer, as above) was incubated with 3 μL of radioactively labelled peptide along with appropriate dilutions of candidate compounds (1.5 μL) in a total volume of 150 μL of buffer (20 mM Tris pH 7.4, 10% glycerol). The reaction was carried out at 37° C. for one hour, after which the reaction was stopped by adding 20 μL of 1 M HCl/0.4 M sodium acetate. […] Radioactivity was measured using a Tri-Carb 2100TR Liquid Scintillation Analyzer (Packard).
(§7) Percent activity (% activity) for each test compound was calculated as: % activity={(S^C−B)/(S^o−B)}×100 wherein S^C denotes signal measured in the presence of enzyme and the compound being tested, S^o denotes signal measured in the presence of enzyme but in the absence of the compound being tested, and B denotes the background signal measured in the absence of both enzyme and compound being tested.

[2] = test system: HDAC (HeLa cell extract); test: Primary assay: deacetylase activity, HeLa cell extract as source of HDAC; type: biochemical, human; details: HeLa cell extract
In short: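 Crude HeLa extract (freeze-thaw in 60 mM TrisCl pH 8.0, 450 mM NaCl, 30% glycerol) was incubated 1 h at 37° C with a [³H]acetyl-labelled histone H4 N-terminal peptide in 20 mM Tris pH 7.4, 10% glycerol.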

[3] = molecular target: T2, human HDAC1 (Homo sapiens, UniProt Q13547); test: Primary assay: deacetylase activity, recombinantly produced HDAC1; type: biochemical; details: recombinant HDAC1; read-out: HDAC Inhibition (IC50 unless otherwise specified) HDAC1
T2 construct: Full length human HDAC1 was cloned by PCR; Flag (C); His6 (from pAcHLT vector; purified on Ni-NTA) (N); made in house; host or cells: SF9 insect cells (baculovirus)
T2 sequence (Q13547 whole entry): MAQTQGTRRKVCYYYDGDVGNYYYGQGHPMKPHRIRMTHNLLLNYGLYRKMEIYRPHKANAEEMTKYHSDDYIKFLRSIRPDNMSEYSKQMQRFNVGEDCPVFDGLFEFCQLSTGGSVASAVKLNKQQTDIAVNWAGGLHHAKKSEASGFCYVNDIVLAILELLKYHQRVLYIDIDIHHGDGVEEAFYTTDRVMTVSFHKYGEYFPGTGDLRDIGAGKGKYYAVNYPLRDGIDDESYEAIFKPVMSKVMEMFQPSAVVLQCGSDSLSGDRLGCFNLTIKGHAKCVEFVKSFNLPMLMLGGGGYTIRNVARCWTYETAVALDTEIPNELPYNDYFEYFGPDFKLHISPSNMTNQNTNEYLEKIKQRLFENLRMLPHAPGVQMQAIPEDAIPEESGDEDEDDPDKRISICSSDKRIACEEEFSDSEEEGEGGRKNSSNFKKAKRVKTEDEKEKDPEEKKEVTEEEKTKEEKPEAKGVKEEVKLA
Excerpt: as §1, §2, §3
Full length human HDAC1 was cloned by PCR using a λgt11 Jurkat cDNA library (Clontech-HL5012b). The amplified fragment was inserted into the EcoRI-Sall sites of pFlag-CTC vector (Sigma-E5394), in frame with the Flag tag. A second PCR was carried out in order to amplify a fragment containing the HDAC1 sequence fused to the Flag tag.
as §4, §5, §6, §7

[4] = test system: HeLa cells; test: Secondary assay: cell proliferation WST-1, HeLa; type: cell-based; details: Homo sapiens, 48 h, read-out: Cell Proliferation Inhibition WST-1 (IC50 unless otherwise specified) HeLa
In short: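 Absorbance at 450 nm (reference 690 nm); % activity vs untreated after blank subtraction, IC50 fitted with top 100 and bottom 0.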

[5] = test system: JURKAT human T-cell line; test: Secondary assay: cell proliferation WST-1, Jurkat; type: cell-based; details: Homo sapiens, 48 h, read-out: Cell Proliferation Inhibition WST-1 (IC50 unless otherwise specified) Jurkat
Protocol: (§8) Compounds with HDAC inhibition activity, as determined using the primary assay, were subsequently evaluated using secondary cell-based assays. The following cell lines were used:
JURKAT—Human T-cell line (ATCC no. TIB-152).
(§9) Cells were plated in 96-well plates at 3-10×10^3 cells/well in 100 μL of culture medium. The following day, different concentrations of candidate compounds were added and the cells incubated at 37° C. for 48 h. Subsequently, 10 μL/well of WST-1 reagent was added and the cells reincubated for 1 hour. After the incubation time, absorbance was measured.
(§10) WST-1 is a tetrazolium salt which is cleaved to formazan dye by cellular enzymes. An expansion in the number of viable cells results in an increase in the overall activity of mitochondrial dehydrogenases in the sample. This augmentation in the enzyme activity leads to an increase in the amount of formazan dye formed, which directly correlates to the number of metabolically active cells in the culture. The formazan dye produced is quantified by a scanning multiwell spectrophotometer by measuring the absorbance of the dye solution at 450 nm wavelength (reference wavelength 690 nm).
(§11) Percent activity (% activity) in reducing the number of viable cells was calculated for each test compound as: % activity={(S^C−B)/(S^o−B)}×100 wherein S^C denotes signal measured in the presence of the compound being tested, S^o denotes signal measured in the absence of the compound being tested, and B denotes the background signal measured in blank wells containing medium only.
(§12) IC50 values were calculated using the software package Prism 3.0 (GraphPad software Inc., San Diego, Calif.), setting top value at 100 and bottom value at 0.

[6] = test system: K11 HPV E7 transformed human keratinocyte line; test: Secondary assay: cell proliferation WST-1, K11; type: cell-based; details: Homo sapiens, Keratinocyte, 48 h, read-out: Cell Proliferation Inhibition WST-1 (IC50 unless otherwise specified) K11
Protocol: as §8
K11—HPV E7 transformed human keratinocyte line provided by Pidder Jansen-Duerr, Institut für Biomedizinische Alternsforschung, Innsbruck, Austria.
as §9, §10, §11, §12

[7] = read-out: HDAC Inhibition (IC50 unless otherwise specified) HeLa

| HDAC Inhibition HDAC2, percent ([1]; recombinant HDAC2, @ 5 μM) [% @ 5 μM] | IC50 [1] [nM] | melting point | IC50 [3] [nM] | IC50 [2, 7] [nM] | IC50 ([2]; comparative tables, no unit in cell, read-out: HeLa IC50) [nM] | IC50 [4] [nM] | Compound | HDAC Inhibition HeLa, percent ([2]; @ 1 μM) [% @ 1 μM] | percent HDAC inhibition at the stated concentration ([2]; comparative tables, @ 1 μM) [% @ 1 μM] | IC50 [5] [nM] | IC50 [6] [nM] | HDAC Inhibition HeLa, percent ([2]; @ 500 nM) [% @ 500 nM] |
| --- | --- | --- | --- | --- | --- | --- | --- | --- | --- | --- | --- | --- |
| 18 |  |  |  |  |  |  | CN(C)c1ccc(C(=O)NCCC(=O)NO)c2ccccc12 [PX082530, 4-Dimethylamino-napthalene-1-carboxylic acid (2-hydroxycarbamoyl-ethyl)-amide] | 13 | 13 |  |  |  |
|  | 688 | 102 to 104 °C |  |  |  |  | O=C(CCCCCNC(=O)c1ccccc1)NO [PX083449, N-(5-Hydroxycarbamoyl-pentyl)-benzamide] |  |  |  |  |  |
|  | 480 | 135 to 136 °C | 175 | 466 | 466 | 2300 | CN(C)c1ccc(C(=O)NCCCCCC(=O)NO)c2ccccc12 [PX089275, 4-Dimethylamino-napthalene-1-carboxylic acid (5-hydroxycarbamoyl-pentyl)-amide] |  |  |  |  |  |
|  | 312 | 131 to 132 °C | 250 | 165 |  | 6300 | COc1ccc(C(=O)NCCCCCC(=O)NO)cc1 [PX089276, N-(5-Hydroxycarbamoyl-pentyl)-4-methoxy-benzamide] |  |  |  |  |  |
|  | 31000 |  |  | 21900 |  | 114000 | CC(/C=C/C(=O)NCCCC(=O)NO)=C\c1ccccc1 [PX105554] |  |  | 20000 |  |  |
|  | 28000 |  |  |  |  |  | CN(C)c1ccc(/C=C/C=C/C(=O)NCCCC(=O)NO)cc1 [PX105669] |  |  |  |  |  |
|  |  | 201 °C (dec.) | 69 | 69 |  | 5200 | O=C(CCCCCNC(=O)c1nc2ccccc2[nH]1)NO [PX105824, 1H-Benzimidazole-2-carboxylic acid (5-hydroxycarbamoylpentyl)amide] |  |  |  |  |  |
|  | 38 | 129 to 131 °C | 31 | 54 |  | 3800 | CC(/C=C/C(=O)NCCCCCC(=O)NO)=C\c1ccccc1 [PX105829, (2E,4E)-4-Methyl-5-phenylpenta-2,4-dienoic acid (5-hydroxycarbamoylpentyl)amide] |  |  |  |  |  |
|  | 69 | 191 to 193 °C | 64 | 33 |  | 9000 | O=C(/C=C/c1ccc2c(c1)OCO2)NCCCCCC(=O)NO [PX105831, (E)-3-Benzo[1,3]dioxol-5-yl-N-(5-hydroxycarbamoylpentyl)acrylamide] |  |  |  |  |  |
|  |  | 55 to 56 °C | 4000 | 3300 |  | 60000 | O=C(CCCCCNC(=O)C(c1ccccc1)c1ccccc1)NO [PX106489, 6-Diphenylacetylamino-hexanoic acid hydroxyamide] |  |  |  |  |  |
|  |  | 178 °C | 438 |  |  |  | O=C(/C=C/c1cccc(NC(=O)/C=C/c2ccccc2)c1)NO [PX106513, N-Hydroxy-3-[3-(3-phenylacryloylamino)-phenyl]-acrylamide] |  | 43 |  |  | 43 |

| Compound | HDAC Inhibition HDAC2, percent ([1]; recombinant HDAC2, @ 5 μM) [% @ 5 μM] | IC50 [1] [nM] | melting point | IC50 [3] [nM] | IC50 [2, 7] [nM] | IC50 ([2]; comparative tables, no unit in cell, read-out: HeLa IC50) [nM] | IC50 [4] [nM] | HDAC Inhibition HeLa, percent ([2]; @ 1 μM) [% @ 1 μM] | percent HDAC inhibition at the stated concentration ([2]; comparative tables, @ 1 μM) [% @ 1 μM] | IC50 [5] [nM] | IC50 [6] [nM] | HDAC Inhibition HeLa, percent ([2]; @ 500 nM) [% @ 500 nM] |
| --- | --- | --- | --- | --- | --- | --- | --- | --- | --- | --- | --- | --- |
| O=C(/C=C/C=C/c1ccccc1)NC[C@H]1CC[C@H](C(=O)NO)CC1 [PX105552, 4-[((2E)(4E)-5-Phenylpenta-2,4-dienoylamino)methyl] cyclohexanecarboxylic acid hydroxyamide] |  | 967 | 210 to 212 °C |  | 500 |  | 10000 |  |  | 7900 | 10000 |  |
| O=C(/C=C/C#Cc1ccccc1)NCCCCCC(=O)NO [PX106525, (E)-5-Phenylpent-2-en-4-ynoic acid (5-hydroxycarbamoylpentyl)amide] |  |  | 146 to 148 °C | 37 | 28 |  | 4700 |  |  | 3600 | 2800 |  |
| CC(=C\c1ccccc1)/C=C(\C)C(=O)NCCCCCC(=O)NO [PX117738, (2E)(4E)-2,4-Dimethyl-5-phenylpenta-2,4-dienoic acid (5-hydroxycarbamoyl-pentyl)amide] |  |  | 120 to 122 °C |  | 131 |  | 24000 |  |  | 1700 | 3200 |  |
| O=C(CCCCCNC(=O)[C@H](Cc1c[nH]c2ccccc12)NC(=O)CCCc1c[nH]c2ccccc12)NO [PX117767, N-Hydroxy-6-[((2S)-3-(1H-indol-3-yl)-2-{[4-(1H-indol-3-yl)butanoyl]amino}propanoyl)-amino]hexanamide] |  |  | 94 to 96 °C |  | 90 |  | 15000 |  |  | 3000 | 6200 |  |
| O=C(CCCCCNC(=O)CC/C=C/c1ccccc1)NO [PX117797, (E)-N-[6-(Hydroxyamino)-6-oxohexyl]-5-phenyl-4-pentenamide] |  |  | 131 to 133 °C |  | 688 |  | 21000 |  |  | 5600 | 21000 |  |

Source: patent US7569724B2, “Carbamic acid compounds comprising an amide linkage as HDAC inhibitors” (Topotarget UK Limited, priority 2000, dated 2009)
